# Earlier results in patent US9982005B2, “Macrolides and methods of their preparation and use” (President and Fellows of Harvard College, priority 2013, dated 2018).
# Test system: panels of Gram-positive bacteria
# Settings: fluorine atom at position C2; cited from earlier work
smiles,measurement,value
CC[C@H]1OC(=O)[C@@](C)(F)C(=O)[C@H](C)[C@@H](O[C@@H]2O[C@H](C)C[C@H](N(C)C)[C@H]2O)[C@](C)(OC)C[C@@H](C)C(=O)[C@H](C)[C@H]2N(CCCCn3cc(-c4cccc(N)c4)nn3)C(=O)O[C@]12C [solithromycin],increase in activity versus the non-fluorinated molecule,4- to 16 fold
